Molecules are shown by their SMILES. Activity calls are given as the source filed them. The calls are words filed in the database; no cut-off is given here.

For the first experiment, the system named is Macrophage. The experiment is described as follows: Inhibition of LPS-stimulated nitric oxide production in BALB/c mouse macrophages at 1 uM after 20 hrs by Griess assay relative to control. It is filed as functional.
In the case of `COc1cc2cc(c1O)-c1cc(ccc1O)CCC(=O)CCCC2` [MYRICANANIN C], the inhibition at 1 µM came out at 17.3%.

Turning to `COc1c2cc(c(O)c1OC)CCCC[C@@H]1OC(C)(C)O[C@H]1Cc1ccc(O)c-2c1` [MYRICANANIN B], the inhibition at 1 µM was found to be 17.3%.

Regarding `COc1cc2cc(c1O)-c1cc(ccc1O)C[C@H](O)[C@@H](O)CCCC2` [MYRICANANIN A], the inhibition at 1 µM came out at 0.84%.

As to `COc1c2cc(c(O)c1OC)CCCCC(=O)C(O)Cc1ccc(O)c-2c1` (stereo unspecified), the inhibition at 1 µM stood at 35.1%.

As for `COc1c2cc(c(O)c1OC)CCCCC(=O)/C=C\c1cc(O)c(O)c-2c1` [MYRICANANIN D], the inhibition at 1 µM stood at 6.12%.

On to `COc1c2cc(c(O)c1OC)CCCCC(=O)C(OC)Cc1cc(O)c(O)c-2c1` (stereo unspecified) [MYRICANANIN E], for which the inhibition at 1 µM was -3.27%.

As to `O=C1CCc2ccc(O)c(c2)-c2cc(ccc2O)CCC(O)C1` (stereo unspecified) [ALNUSONOL], the inhibition at 1 µM is -3.39%.

For the compound `COC1=C(OC)C(=O)C2=C(CCCCC(O)CCc3ccc(O)c2c3)C1=O` (stereo unspecified) [ACTINIDIONE], the inhibition at 1 µM stood at 9.52%.

For another experiment, the system named is Macrophage. In words: Inhibition of LPS-stimulated nitric oxide production in BALB/c mouse macrophages after 20 hrs by Griess assay relative to control. The experiment is classed as functional, cell-based.
For the compound `COc1cc2cc(c1O)-c1cc(ccc1O)CCC(=O)CCCC2` [MYRICANANIN C], the concentration for half-maximal inhibition (IC50) is 63.5 µM.

For `COc1c2cc(c(O)c1OC)CCCC[C@@H]1OC(C)(C)O[C@H]1Cc1ccc(O)c-2c1` [MYRICANANIN B], the IC50 was 52.8 µM.

The compound `COc1cc2cc(c1O)-c1cc(ccc1O)C[C@H](O)[C@@H](O)CCCC2` [MYRICANANIN A] registered an IC50 of 45.3 µM.

Compound `COc1c2cc(c(O)c1OC)CCCCC(=O)C(O)Cc1ccc(O)c-2c1` (stereo unspecified) came in with a concentration for half-maximal inhibition (IC50) of 30.2 µM.

The compound `O=C1CCc2ccc(O)c(c2)-c2cc(ccc2O)CCC(O)C1` (stereo unspecified) [ALNUSONOL] registered an IC50 of 46.2 µM.

The test system of a further experiment is Macrophage. In words: Inhibition of LPS-stimulated nitric oxide production in BALB/c mouse macrophages at 100 uM after 20 hrs by Griess assay relative to control. The experiment is classed as functional.
`COc1cc2cc(c1O)-c1cc(ccc1O)CCC(=O)CCCC2` [MYRICANANIN C]: the inhibition at 100 µM is 50.1%.

`COc1c2cc(c(O)c1OC)CCCC[C@@H]1OC(C)(C)O[C@H]1Cc1ccc(O)c-2c1` [MYRICANANIN B]: the inhibition at 100 µM came out at 55.8%.

As for `COc1cc2cc(c1O)-c1cc(ccc1O)C[C@H](O)[C@@H](O)CCCC2` [MYRICANANIN A], the inhibition at 100 µM came to 84.4%.

`COc1c2cc(c(O)c1OC)CCCCC(=O)C(O)Cc1ccc(O)c-2c1` (stereo unspecified): the inhibition at 100 µM is 65.5%.

For the compound `COc1c2cc(c(O)c1OC)CCCCC(=O)/C=C\c1cc(O)c(O)c-2c1` [MYRICANANIN D], the inhibition at 100 µM amounted to 31.8%.

Take `COc1c2cc(c(O)c1OC)CCCCC(=O)C(OC)Cc1cc(O)c(O)c-2c1` (stereo unspecified) [MYRICANANIN E]: the inhibition at 100 µM was determined as 49.2%.

With `O=C1CCc2ccc(O)c(c2)-c2cc(ccc2O)CCC(O)C1` (stereo unspecified) [ALNUSONOL], the inhibition at 100 µM stood at 54.5%.

`COC1=C(OC)C(=O)C2=C(CCCCC(O)CCc3ccc(O)c2c3)C1=O` (stereo unspecified) [ACTINIDIONE]: the inhibition at 100 µM was 38.7%.

The subject of another experiment is Macrophage. In words: Inhibition of iNOS expression in LPS-activated BALB/c mouse macrophages at 1 to 100 uM after 12 hrs by SDS-PAGE. It is filed as functional, cell-based.
For the compound `COc1cc2cc(c1O)-c1cc(ccc1O)C[C@H](O)[C@@H](O)CCCC2` [MYRICANANIN A], the result was Active.

The next experiment concerns Macrophage. The experiment is described as follows: Inhibition of LPS-stimulated nitric oxide production in BALB/c mouse macrophages at 3 uM after 20 hrs by Griess assay relative to control. It is filed as functional.
For the compound `COc1cc2cc(c1O)-c1cc(ccc1O)CCC(=O)CCCC2` [MYRICANANIN C], the inhibition at 3 µM was determined as 32.8%.

As for `COc1c2cc(c(O)c1OC)CCCC[C@@H]1OC(C)(C)O[C@H]1Cc1ccc(O)c-2c1` [MYRICANANIN B], the inhibition at 3 µM worked out at 32.8%.

Consider `COc1cc2cc(c1O)-c1cc(ccc1O)C[C@H](O)[C@@H](O)CCCC2` [MYRICANANIN A], for which the inhibition at 3 µM is -0.13%.

Take `COc1c2cc(c(O)c1OC)CCCCC(=O)C(O)Cc1ccc(O)c-2c1` (stereo unspecified): the inhibition at 3 µM stood at 48.7%.

`COc1c2cc(c(O)c1OC)CCCCC(=O)/C=C\c1cc(O)c(O)c-2c1` [MYRICANANIN D]: the inhibition at 3 µM was determined as 17.7%.

In the case of `COc1c2cc(c(O)c1OC)CCCCC(=O)C(OC)Cc1cc(O)c(O)c-2c1` (stereo unspecified) [MYRICANANIN E], the inhibition at 3 µM amounted to 9.22%.

Consider `O=C1CCc2ccc(O)c(c2)-c2cc(ccc2O)CCC(O)C1` (stereo unspecified) [ALNUSONOL], for which the inhibition at 3 µM worked out at 34.8%.

Turning to `COC1=C(OC)C(=O)C2=C(CCCCC(O)CCc3ccc(O)c2c3)C1=O` (stereo unspecified) [ACTINIDIONE], the inhibition at 3 µM was 21.1%.

A further experiment relates to Macrophage. In words: Inhibition of LPS-stimulated nitric oxide production in BALB/c mouse macrophages at 30 uM after 20 hrs by Griess assay relative to control. It is filed as functional.
For the compound `COc1cc2cc(c1O)-c1cc(ccc1O)CCC(=O)CCCC2` [MYRICANANIN C], the inhibition at 30 µM was determined as 42.6%.

Consider `COc1c2cc(c(O)c1OC)CCCC[C@@H]1OC(C)(C)O[C@H]1Cc1ccc(O)c-2c1` [MYRICANANIN B], for which the inhibition at 30 µM was determined as 49.7%.

With `COc1cc2cc(c1O)-c1cc(ccc1O)C[C@H](O)[C@@H](O)CCCC2` [MYRICANANIN A], the inhibition at 30 µM was determined as 50.8%.

As to `COc1c2cc(c(O)c1OC)CCCCC(=O)C(O)Cc1ccc(O)c-2c1` (stereo unspecified), the inhibition at 30 µM came to 55.7%.

As to `COc1c2cc(c(O)c1OC)CCCCC(=O)/C=C\c1cc(O)c(O)c-2c1` [MYRICANANIN D], the inhibition at 30 µM is 19.1%.

As for `COc1c2cc(c(O)c1OC)CCCCC(=O)C(OC)Cc1cc(O)c(O)c-2c1` (stereo unspecified) [MYRICANANIN E], the inhibition at 30 µM turned out to be 29.8%.

Turning to `O=C1CCc2ccc(O)c(c2)-c2cc(ccc2O)CCC(O)C1` (stereo unspecified) [ALNUSONOL], the inhibition at 30 µM stood at 41.1%.

As to `COC1=C(OC)C(=O)C2=C(CCCCC(O)CCc3ccc(O)c2c3)C1=O` (stereo unspecified) [ACTINIDIONE], the inhibition at 30 µM turned out to be 31.4%.

The subject of the next experiment is Macrophage. In words: Inhibition of LPS-stimulated nitric oxide production in BALB/c mouse macrophages at 10 uM after 20 hrs by Griess assay relative to control. The experiment is classed as functional.
As for `COc1cc2cc(c1O)-c1cc(ccc1O)CCC(=O)CCCC2` [MYRICANANIN C], the inhibition at 10 µM came to 39.1%.

Take `COc1c2cc(c(O)c1OC)CCCC[C@@H]1OC(C)(C)O[C@H]1Cc1ccc(O)c-2c1` [MYRICANANIN B]: the inhibition at 10 µM is 39.2%.

As to `COc1cc2cc(c1O)-c1cc(ccc1O)C[C@H](O)[C@@H](O)CCCC2` [MYRICANANIN A], the inhibition at 10 µM was 36%.

`COc1c2cc(c(O)c1OC)CCCCC(=O)C(O)Cc1ccc(O)c-2c1` (stereo unspecified): the inhibition at 10 µM was found to be 41.8%.

`COc1c2cc(c(O)c1OC)CCCCC(=O)/C=C\c1cc(O)c(O)c-2c1` [MYRICANANIN D]: the inhibition at 10 µM turned out to be 23.8%.

Take `COc1c2cc(c(O)c1OC)CCCCC(=O)C(OC)Cc1cc(O)c(O)c-2c1` (stereo unspecified) [MYRICANANIN E]: the inhibition at 10 µM amounted to 15.3%.

As to `O=C1CCc2ccc(O)c(c2)-c2cc(ccc2O)CCC(O)C1` (stereo unspecified) [ALNUSONOL], the inhibition at 10 µM worked out at 45.8%.

In the case of `COC1=C(OC)C(=O)C2=C(CCCCC(O)CCc3ccc(O)c2c3)C1=O` (stereo unspecified) [ACTINIDIONE], the inhibition at 10 µM was 22.9%.
